Test results reported in patent US8436159B2, “Glyphosate resistant class I 5-endolpyruvylshikimate-3-phosphate synthase (EPSPS)” (Monsanto Technology LLC, priority 2003, dated 2013).
Substitutions are numbered along the chain they refer to.

Key:
[1] = biological target: T1, maize (Zea mays) class I EPSPS variant TIPA (T102I, P106A), pMON42481, ZmTIPA SEQ ID NO:39 (Zea mays, UniProt O24566, P106A/T102I); experiment: EPSPS steady-state kinetics, TIPA variant; assay type: biochemical
T1 construct: pMON42481
T1 sequence (O24566 1-444 T102I/P106A): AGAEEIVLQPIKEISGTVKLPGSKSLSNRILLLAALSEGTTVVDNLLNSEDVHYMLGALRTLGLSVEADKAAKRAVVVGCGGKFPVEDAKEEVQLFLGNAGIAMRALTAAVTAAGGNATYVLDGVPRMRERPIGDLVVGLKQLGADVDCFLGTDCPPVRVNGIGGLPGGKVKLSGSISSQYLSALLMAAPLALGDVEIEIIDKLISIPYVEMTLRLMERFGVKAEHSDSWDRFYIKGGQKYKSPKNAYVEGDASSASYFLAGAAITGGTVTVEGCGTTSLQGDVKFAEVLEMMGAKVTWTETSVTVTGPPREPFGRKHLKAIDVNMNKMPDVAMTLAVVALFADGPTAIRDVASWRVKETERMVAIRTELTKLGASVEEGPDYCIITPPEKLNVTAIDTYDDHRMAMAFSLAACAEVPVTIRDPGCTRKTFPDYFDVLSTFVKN
Source text: (§1) The double variants of the present invention were made using pMON58452 (FIG. 5) as the template. This pMON58452 EPSPS gene template contains the maize EPSPS double variant T102I, P106T (TIPT) that was constructed by mutagenesis of pMON70467 with the mutagenesis primers mEmut-9-U and mEmut-10-L. The various mutagenesis primer sequences were designed and then were synthesized by Invitrogen Corp., Custom Primers and used in combination in a PCR to create the variant EPSPS coding sequences. The PCR was set up in a 50 μl reaction in the following manner: dH2O 38 μl; 2 mM dNTP 1 μL; 10× buffer 5 μL; pMON58452 1 μL (10 ng); primer-U 2 μL; primer-L 2 μL; pfu Turbo enzyme 1 μL. PCR was carried out on a MJ Research PTC-200 thermal cycler using the following program: Step 1—94° C. for 30 seconds; Step 2—94° C. for 30 seconds; Step 3—55° C. for 1 minute; Step 4—68° C. for 14 minute; Step 5—go to step 2, 16 times; Step 6—End. At the end of the PCR, 1 μl of the restriction enzyme DpnI was added to each 50 μl of PCR reaction and the mixture was incubated at 37° C. for 1 hour. […]

[2] = biological target: T2, maize (Zea mays) class I EPSPS variant TIPC (T102I, P106C), pMON42485 (Zea mays, UniProt O24566, P106C/T102I); experiment: EPSPS steady-state kinetics, TIPC variant
T2 sequence (O24566 1-444 T102I/P106C): T1 sequence (O24566 1-444 T102I/P106A) with A106C
Source text: as §1

## O=C(O)CNCP(=O)(O)O [glyphosate, N-phosphonomethylglycine]
[1]
  Ki: 148 ± 18.3 µM
[2]
  Ki: 818 ± 74.4 µM
